Earlier results in patent US8372452B2, “Oral herbal composition for the treatment of oral candidiasis” (Piramal Life Sciences Limited, priority 2008, dated 2013).

Tested on: oral pathogens (Enterococcus faecalis, Streptococcus salivarius, Streptococcus mitis, Streptococcus mutans, Streptococcus sobrinus, Streptococcus sanguinis and …)
Conditions: literature report, Silva M L et al. 2007

Substance: (−)-cubebin
- activity against oral pathogens (microorganisms): exhibited activity
